Activity calls are given as the source filed them. The calls are words filed in the database; no cut-off is given here.
Tests used:
[1] = biological target: Coagulation factor XI (Homo sapiens) (UniProt P03951); test: Inhibition of factor 11a (unknown origin) at IC50 using S-2366 as substrate preincubated for 1 min followed by chromogenic substrate addition and measured for 2 mins in presence of AT-III; details: time 3.0 min
Plasma [2] = test: Anticoagulation activity in human plasma assessed as drug level causing 20 times doubling of APTT by measuring activity potency of oligosaccharides multiplied by the percentage of oligosaccharides in dHG-5 preincubated for 2 mins followed by APTT reagent and measured after 3 mins by coagulometric method relative to dHG-5; format: functional; details: time 5 min
Coagulation factor IX [3] = biological target: T1, Coagulation factor IX (Homo sapiens, UniProt P00740); test: Inhibition of factor 9a (unknown origin) binding to immobilized biotinylated oHG-11 assessed as activity potency of oligosaccharides multiplied by the percentage of oligosaccharides in dHG-5 by biolayer interferometry relative to dHG-5
T1 sequence (P00740 47-191 limits assumed): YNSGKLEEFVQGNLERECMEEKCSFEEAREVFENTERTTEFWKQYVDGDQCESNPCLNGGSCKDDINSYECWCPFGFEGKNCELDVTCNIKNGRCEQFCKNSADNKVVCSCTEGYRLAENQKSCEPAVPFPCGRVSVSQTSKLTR
T1 sequence (P00740 227-461 limits assumed): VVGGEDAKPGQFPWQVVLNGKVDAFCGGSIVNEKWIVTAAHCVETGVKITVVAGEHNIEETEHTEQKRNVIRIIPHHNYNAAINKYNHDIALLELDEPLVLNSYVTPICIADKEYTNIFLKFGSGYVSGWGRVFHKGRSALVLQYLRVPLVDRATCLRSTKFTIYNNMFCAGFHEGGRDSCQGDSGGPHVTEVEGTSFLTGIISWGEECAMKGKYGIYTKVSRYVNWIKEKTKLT

Rattus norvegicus [4] = test: Antithrombotic activity in thromboplastin and stasis-induced Sprague-Dawley rat deep venous thrombosis model assessed as reduction in venous thrombosis at 1.52 mg/kg, sc administered 1 hr prior to thromboplastin addition for 20 secs followed by establishment of stasis for 20 mins relative to dHG-5; format: functional; details: time 80.33 min, 1.339 h
Plasma [5] = test: Induction of platelet aggregation in human platelet rich plasma at plasma peak concentration of 10 times anti-thrombosis ED50 measured after 10 mins by light transmission aggregometry
Plasma [6] = test: Anticoagulation activity in AT-III-deficient human plasma preincubated for 2 mins followed by APTT reagent and measured after 3 mins by coagulometric method; format: functional, cell-free; details: time 5.0 min
Rattus norvegicus [7] = test: Antithrombotic activity in thromboplastin and stasis-induced Sprague-Dawley rat deep venous thrombosis model assessed as reduction in venous thrombosis by measuring activity potency of oligosaccharides multiplied by the percentage of oligosaccharides in dHG-5 at 1.52 mg/kg, sc administered 1 hr prior to thromboplastin addition for 20 secs followed by establishment of stasis for 20 mins relative …; format: functional; details: time 80.33 min, 1.339 h
[8] = biological target: T2, Coagulation factor IX/VIII (Homo sapiens) (UniProt P00740+P00451); test: Inhibition of human citrated plasma iXase (factor 8a-factor 9a complex) assessed as activity potency of oligosaccharides multiplied by the percentage of oligosaccharides in dHG-5 preincubated for 2 mins followed by factor 10 addition and measured after 1 min by FXa chromogenic substrate SXa-11 based assay relative to dHG-5; format: protein-complex assay; details: time 3.0 min
[9] = biological target: T3, Coagulation factor VII (Homo sapiens) (UniProt P08709); test: Inhibition of factor 7a (unknown origin) at IC50 using pefachrome factor VIIa as substrate preincubated for 1 min followed by chromogenic substrate addition and measured for 2 mins in presence of AT-III; details: time 3.0 min
T3 sequence (whole entry): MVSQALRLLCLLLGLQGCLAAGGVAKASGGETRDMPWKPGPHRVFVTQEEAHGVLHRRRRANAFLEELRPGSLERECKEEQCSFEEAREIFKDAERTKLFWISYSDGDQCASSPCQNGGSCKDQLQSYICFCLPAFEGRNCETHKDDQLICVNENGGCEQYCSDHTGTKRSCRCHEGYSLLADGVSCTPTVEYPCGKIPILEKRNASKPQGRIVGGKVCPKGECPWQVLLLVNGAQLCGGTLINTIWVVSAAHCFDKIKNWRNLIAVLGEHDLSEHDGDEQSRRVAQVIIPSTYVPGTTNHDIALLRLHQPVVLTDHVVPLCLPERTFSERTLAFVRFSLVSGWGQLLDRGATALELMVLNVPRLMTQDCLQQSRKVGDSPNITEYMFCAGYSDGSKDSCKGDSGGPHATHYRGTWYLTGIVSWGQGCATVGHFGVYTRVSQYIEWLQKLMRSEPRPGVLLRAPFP

[10] = biological target: T4, Coagulation factor XII (Homo sapiens) (UniProt P00748); test: Inhibition of factor 12a (unknown origin) at IC50 using kallikrein chromogenic substrate preincubated for 1 min followed by chromogenic substrate addition and measured for 2 mins in presence of AT-III; details: time 3.0 min
T4 sequence (whole entry): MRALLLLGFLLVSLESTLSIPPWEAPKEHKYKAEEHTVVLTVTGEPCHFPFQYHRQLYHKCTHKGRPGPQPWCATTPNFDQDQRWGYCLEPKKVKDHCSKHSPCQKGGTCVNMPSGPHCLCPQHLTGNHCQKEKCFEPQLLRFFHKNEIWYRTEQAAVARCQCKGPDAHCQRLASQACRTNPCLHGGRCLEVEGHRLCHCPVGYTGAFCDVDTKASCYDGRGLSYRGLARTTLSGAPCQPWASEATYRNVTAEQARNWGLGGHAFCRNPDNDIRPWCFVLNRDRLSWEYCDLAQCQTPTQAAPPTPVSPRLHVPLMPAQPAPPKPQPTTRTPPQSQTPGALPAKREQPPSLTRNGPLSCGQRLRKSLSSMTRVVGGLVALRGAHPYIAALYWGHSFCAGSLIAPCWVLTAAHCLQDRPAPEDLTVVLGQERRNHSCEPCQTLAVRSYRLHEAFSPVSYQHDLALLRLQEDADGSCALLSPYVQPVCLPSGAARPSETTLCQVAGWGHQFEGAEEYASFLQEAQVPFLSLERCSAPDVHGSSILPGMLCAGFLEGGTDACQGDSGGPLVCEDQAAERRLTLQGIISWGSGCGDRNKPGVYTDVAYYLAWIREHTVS

[11] = biological target: Coagulation factor X (Homo sapiens) (UniProt P00742); test: Inhibition of factor 10a (unknown origin) at IC90 preincubated for 1 min followed by chromogenic substrate addition and measured for 2 mins in presence of AT-III relative to control; details: time 3.0 min
Chain of Coagulation factor X (Homo sapiens) (P00742 41-179 limits assumed): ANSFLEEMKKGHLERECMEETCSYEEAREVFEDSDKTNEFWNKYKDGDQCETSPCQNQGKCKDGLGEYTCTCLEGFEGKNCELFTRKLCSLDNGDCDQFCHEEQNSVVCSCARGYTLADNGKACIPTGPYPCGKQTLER
Chain of Coagulation factor X (Homo sapiens) (P00742 235-488 limits assumed): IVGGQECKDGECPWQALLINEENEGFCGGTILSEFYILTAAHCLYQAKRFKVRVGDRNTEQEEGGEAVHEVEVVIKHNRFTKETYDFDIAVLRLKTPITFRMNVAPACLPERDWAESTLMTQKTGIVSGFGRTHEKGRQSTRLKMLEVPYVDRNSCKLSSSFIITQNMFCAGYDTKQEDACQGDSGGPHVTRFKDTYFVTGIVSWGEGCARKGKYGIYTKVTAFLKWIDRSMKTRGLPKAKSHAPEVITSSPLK

[12] = biological target: Coagulation factor XI (Homo sapiens) (UniProt P03951); test: Inhibition of factor 11a (unknown origin) at IC50 using S-2366 as substrate preincubated for 1 min followed by chromogenic substrate addition and measured for 2 mins; details: time 3.0 min
Coagulation factor IX [13] = biological target: T1, Coagulation factor IX; test: Inhibition of factor 9a (unknown origin) binding to immobilized biotinylated oHG-11 by biolayer interferometry relative to dHG-5
[14] = biological target: Coagulation factor X (Homo sapiens) (UniProt P00742); test: Inhibition of factor 10a (unknown origin) at IC50 preincubated for 1 min followed by chromogenic substrate addition and measured for 2 mins in presence of AT-III; details: time 3.0 min
Rattus norvegicus [15] = test: Antithrombotic activity in thromboplastin and stasis-induced Sprague-Dawley rat deep venous thrombosis model assessed as reduction in venous thrombosis at 1.52 mg/kg, sc administered 1 hr prior to thromboplastin addition for 20 secs followed by establishment of stasis for 20 mins; format: functional; details: 1.339 h, time 80.33 min
Plasma [16] = test: Anticoagulation activity in human plasma assessed as drug level causing 20 times doubling of APTT preincubated for 2 mins followed by APTT reagent and measured after 3 mins by coagulometric method relative to dHG-5; format: functional; details: time 5 min
[17] = biological target: Coagulation factor X (Homo sapiens) (UniProt P00742); test: Inhibition of factor 10a (unknown origin) at IC50 preincubated for 1 min followed by chromogenic substrate addition and measured for 2 mins; details: time 3.0 min
[18] = biological target: T3, Coagulation factor VII (Homo sapiens); test: Inhibition of factor 7a (unknown origin) at IC50 using pefachrome factor VIIa as substrate preincubated for 1 min followed by chromogenic substrate addition and measured for 2 mins; details: time 3.0 min
[19] = biological target: Prothrombin (Homo sapiens) (UniProt P00734); test: Inhibition of factor 2a (unknown origin) at IC90 preincubated for 1 min followed by chromogenic substrate addition and measured for 2 mins in presence of AT-III; details: time 3.0 min
Plasma [20] = test: Anticoagulation activity in HCII-deficient human plasma preincubated for 2 mins followed by APTT reagent and measured after 3 mins by coagulometric method; format: functional, cell-free; details: time 5.0 min
[21] = biological target: Prothrombin (Homo sapiens) (UniProt P00734); test: Inhibition of factor 2a (unknown origin) at IC50 preincubated for 1 min followed by chromogenic substrate addition and measured for 2 mins in presence of AT-III; details: time 3.0 min
Plasma [22] = test: Induction of platelet aggregation in rat wash platelet at plasma peak concentration of 10 times anti-thrombosis ED50 measured after 10 mins by light transmission aggregometry
[23] = biological target: Coagulation factor XI (Homo sapiens) (UniProt P03951); test: Inhibition of factor 11a (unknown origin) at IC90 using S-2366 as substrate preincubated for 1 min followed by chromogenic substrate addition and measured for 2 mins in presence of AT-III; details: time 3.0 min
[24] = biological target: Prothrombin (Homo sapiens) (UniProt P00734); test: Inhibition of factor 2a (unknown origin) at IC50 preincubated for 1 min followed by chromogenic substrate addition and measured for 2 mins; details: time 3.0 min
[25] = biological target: T4, Coagulation factor XII (Homo sapiens); test: Inhibition of factor 12a (unknown origin) at IC50 using kallikrein chromogenic substrate preincubated for 1 min followed by chromogenic substrate addition and measured for 2 mins; details: time 3.0 min
[26] = biological target: T2, Coagulation factor IX/VIII (Homo sapiens); test: Inhibition of human citrated plasma iXase (factor 8a-factor 9a complex) preincubated for 2 mins followed by factor 10 addition and measured after 1 min by FXa chromogenic substrate SXa-11 based assay relative to dHG-5; format: protein-complex assay; details: time 3.0 min

Chain of Coagulation factor XI (Homo sapiens) (P03951 19-387 limits assumed): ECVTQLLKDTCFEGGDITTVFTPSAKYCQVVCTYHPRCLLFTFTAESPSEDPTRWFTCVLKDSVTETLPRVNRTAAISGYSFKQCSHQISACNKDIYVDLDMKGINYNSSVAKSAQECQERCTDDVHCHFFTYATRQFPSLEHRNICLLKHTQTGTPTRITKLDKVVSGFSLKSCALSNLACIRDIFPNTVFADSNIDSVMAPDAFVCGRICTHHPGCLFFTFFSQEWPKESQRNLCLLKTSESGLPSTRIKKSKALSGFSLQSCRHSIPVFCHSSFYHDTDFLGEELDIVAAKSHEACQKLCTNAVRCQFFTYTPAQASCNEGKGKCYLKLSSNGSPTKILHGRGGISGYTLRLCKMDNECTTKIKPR
Chain of Coagulation factor XI (Homo sapiens) (P03951 388-625 limits assumed): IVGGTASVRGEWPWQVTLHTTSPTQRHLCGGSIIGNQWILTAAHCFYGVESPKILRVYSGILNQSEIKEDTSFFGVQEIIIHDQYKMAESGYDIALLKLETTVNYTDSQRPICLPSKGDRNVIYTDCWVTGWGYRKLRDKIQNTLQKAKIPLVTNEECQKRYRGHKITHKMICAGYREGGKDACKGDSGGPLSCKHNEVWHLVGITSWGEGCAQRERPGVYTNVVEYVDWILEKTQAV

- inhibition [1]: inactive
- Ratio (Coagulation factor IX [3]): 4.46 U
- Activity (Plasma [5]): Not Active
- Ratio [8]: 14.1 U
- inhibition [9]: inactive
- inhibition [10]: inactive
- inhibition [11]: inactive
- inhibition [12]: inactive
- Ratio (Coagulation factor IX [13]): 151 U
- inhibition [14]: inactive
- inhibition [17]: inactive
- inhibition (active/not active) [18]: inactive
- inhibition [19]: Active
- inhibition [21]: inactive
- Activity (Plasma [22]): Not Active
- inhibition [23]: Active
- inhibition [24]: inactive
- inhibition [25]: inactive
- Ratio [26]: 478 U
SMILES: CC(=O)N[C@H]1[C@H](O[C@@H]([C@H](O[C@@H]2O[C@@H](C)[C@@H](OS(=O)(=O)[O-])[C@@H](OS(=O)(=O)O)[C@@H]2O)[C@@H](O)CO)[C@H](O)C(=O)[O-])O[C@H](COS(=O)(=O)[O-])[C@H](OS(=O)(=O)[O-])[C@@H]1O[C@@H]1O[C@H](C(=O)[O-])[C@@H](O[C@@H]2O[C@H](COS(=O)(=O)[O-])[C@H](OS(=O)(=O)[O-])[C@H](O[C@@H]3O[C@H](C(=O)[O-])[C@@H](O[C@@H]4O[C@H](COS(=O)(=O)[O-])[C@H](OS(=O)(=O)[O-])[C@H](O[C@@H]5O[C@H](C(=O)[O-])[C@@H](O[C@@H]6O[C@H](COS(=O)(=O)[O-])[C@H](OS(=O)(=O)[O-])[C@H](O[C@@H]7O[C@H](C(=O)[O-])[C@@H](O[C@@H]8O[C@H](COS(=O)(=O)[O-])[C@H](OS(=O)(=O)[O-])[C@H](O[C@@H]9O[C@H](C(=O)[O-])[C@@H](O[C@@H]%10O[C@H](COS(=O)(=O)[O-])[C@H](OS(=O)(=O)[O-])[C@H](O[C@@H]%11O[C@H](C(=O)[O-])[C@@H](O[C@@H]%12O[C@H](COS(=O)(=O)[O-])[C@H](OS(=O)(=O)[O-])[C@H](O[C@@H]%13O[C@H](C(=O)[O-])[C@@H](O[C@@H]%14O[C@H](COS(=O)(=O)[O-])[C@H](OS(=O)(=O)[O-])[C@H](O[C@@H]%15O[C@H](C(=O)[O-])[C@@H](O[C@@H]%16O[C@H](COS(=O)(=O)[O-])[C@H](OS(=O)(=O)[O-])[C@H](O[C@@H]%17OC(C(=O)O)=C[C@H](O[C@@H]%18O[C@@H](C)[C@@H](OS(=O)(=O)[O-])[C@@H](OS(=O)(=O)O)[C@@H]%18O)[C@H]%17O)[C@H]%16NC(C)=O)[C@H](O[C@@H]%16O[C@@H](C)[C@@H](OS(=O)(=O)[O-])[C@@H](OS(=O)(=O)O)[C@@H]%16O)[C@H]%15O)[C@H]%14NC(C)=O)[C@H](O[C@@H]%14O[C@@H](C)[C@@H](OS(=O)(=O)[O-])[C@@H](OS(=O)(=O)O)[C@@H]%14O)[C@H]%13O)[C@H]%12NC(C)=O)[C@H](O[C@@H]%12O[C@@H](C)[C@@H](OS(=O)(=O)[O-])[C@@H](OS(=O)(=O)O)[C@@H]%12O)[C@H]%11O)[C@H]%10NC(C)=O)[C@H](O[C@@H]%10O[C@@H](C)[C@@H](OS(=O)(=O)[O-])[C@@H](OS(=O)(=O)O)[C@@H]%10O)[C@H]9O)[C@H]8NC(C)=O)[C@H](O[C@@H]8O[C@@H](C)[C@@H](OS(=O)(=O)[O-])[C@@H](OS(=O)(=O)O)[C@@H]8O)[C@H]7O)[C@H]6NC(C)=O)[C@H](O[C@@H]6O[C@@H](C)[C@@H](OS(=O)(=O)[O-])[C@@H](OS(=O)(=O)O)[C@@H]6O)[C@H]5O)[C@H]4NC(C)=O)[C@H](O[C@@H]4O[C@@H](C)[C@@H](OS(=O)(=O)[O-])[C@@H](OS(=O)(=O)O)[C@@H]4O)[C@H]3O)[C@H]2NC(C)=O)[C@H](O[C@@H]2O[C@@H](C)[C@@H](OS(=O)(=O)[O-])[C@@H](OS(=O)(=O)O)[C@@H]2O)[C@H]1O.[Na+].[Na+].[Na+].[Na+].[Na+].[Na+].[Na+].[Na+].[Na+].[Na+].[Na+].[Na+].[Na+].[Na+].[Na+].[Na+].[Na+].[Na+].[Na+].[Na+].[Na+].[Na+].[Na+].[Na+].[Na+].[Na+].[Na+].[Na+].[Na+].[Na+].[Na+].[Na+].[Na+].[Na+].[Na+].[Na+].[Na+]
- Ratio (Plasma [2]): 12.57 U
- Ratio (Rattus norvegicus [4]): 233.18 U
- Activity (Plasma [6]): Active
- Ratio (Rattus norvegicus [7]): 7 U
- inhibition in vivo at 1.52 mg/kg (Rattus norvegicus [15]): 36.4%
- Ratio (Plasma [16]): 426.19 U
- Activity (Plasma [20]): Active

Source: ChEMBL document CHEMBL4765450, “The components and activities analysis of a novel anticoagulant candidate dHG-5” (Eur J Med Chem, 2020)
